Test results: patent US20240344145A1, “PHARMACOGENOMICS SCORE TO MAKE DECISIONS ON THERAPY AUGMENTATION IN AML” (University of Florida Research Foundation, Incorporated, priority 2021, published 2024)

Test system: ara-C metabolic pathway genes
Test: Association of ara-C pathway SNP genotypes with MRD1, EFS and OS in AML02 (logistic regression and Cox models; also within LDAC and HDAC arms)
Set-up: species or system human
Settings: within arm of AML02
From the text: Genomic DNA from patients enrolled in the multi-site St. Jude AML02 trial was genotyped for 155 SNPs in 16 genes of relevance to ara-C pharmacology using sequenom iPlex platform that uses MALDI-TOF based chemistry at University of Minnesota, Biomedical Genomics Center. SNPs were selected based on previously reported studies. For SNPs lacking literature on genetic variation, SNPs were selected to capture LD blocks (European and African ancestry) on a gene. Of 155 SNPs, 1 SNP was excluded due to low call rate (<90%), 47 SNPs were excluded due to minimum allele frequency of less than 5%, 11 SNPs were excluded due to high LD (r^2>0.9) with other SNPs; two SNPs were excluded because of deviation from Hardy-Weinberg equilibrium. Genotype for the COG-AAML0531 cohort for the selected SNPs was obtained using sequenom platform or TaqMan genotyping assays, and for a few SNPs was extracted from the data available on Illumina 2.5 Omni array. Genotype calls from multiple platforms were confirmed across multiple samples randomly collected from the cohort.
SNP genotype groups in three different modes of inheritance (additive, dominant, and recessive) were tested for association with MRD1 using logistic regression models. Odds ratio (OR) and 95% confidence interval (CI) were calculated for each test. SNPs with association P-value<0.05 were considered significant. Cox-proportional hazard models were used to evaluate association of genotype groups with EFS or OS. Hazard ratio (HR) and 95% CI were calculated for each test. p-value<0.05 was considered statistically significant. Given initial risk group assignments are well-established prognostic factors associated with outcome, outcome association analysis of SNPs with and without adjusting for risk group was also performed to identify SNPs that are associated with outcome independent of risk group.
SNPs with p<0.15 in risk-adjusted univariate evaluation with clinical endpoints (MRD1, EFS, and OS) were tested for all possible combinations with a maximum of three SNPs per model in multivariable logistic regression models for association with MRD1 and Cox-proportional hazard models for association with EFS and OS. Analysis for up to 3 SNP combinations was restricted due to computational challenges as increasing the maximum number of SNPs per model drastically increases the number of models as 1000 permutations were run for each model. Models were ordered according to their Bayesian Information Criterion (BIC) and weight in favor of each model. One thousand permutation tests were performed for each model to determine statistical significance. The six unique SNPs from the most significant models for EFS and MRD1 were included in the development of the ACS10 score as described in the results section.
The multicenter AML02 clinical trial randomly assigned subjects to receive low dose ara-C (LDAC: 100 mg/m^2; n=91 patients) or high dose ara-C(HDAC: 3 g/m^2; n=75 patients) in combination with daunorubicin and etoposide as the first course of chemotherapy as described above in patient cohort section. Thus, the association of SNPs with outcome within each arm separately was also explored (Table 5).

[1] = rs4742 (DCTD, WT T, VAR C), MOI R
[2] = rs5841 (NME4, WT C, VAR T), MOI D
[3] = rs324148 (SLC29A1, WT C, VAR T), MOI A
[4] = rs407983 (NME4, WT G, VAR C), MOI A
[5] = rs507964 (SLC29A1, WT C, VAR A), MOI R
[6] = rs580032 (CDA, WT T, VAR G), MOI D
[7] = rs602950 (CDA, WT T, VAR C), MOI A
[8] = rs747199 (SLC29A1, WT C, VAR G), MOI D
[9] = rs818196 (CDA, WT G, VAR C), MOI D
[10] = rs1048977 (CDA, WT C, VAR T), MOI D
[11] = rs1138729 (RRM2, WT A, VAR G), MOI D
[12] = rs2072671 (CDA, WT A, VAR C), MOI A
[13] = rs2396243 (SLC29A1, WT G, VAR A), MOI D
[14] = rs3088062 (CMPK1, WT T, VAR C), MOI A
[15] = rs3743162 (SLC28A1, WT C, VAR T), MOI D
[16] = rs3829540 (NME3, WT G, VAR A), MOI D
[17] = rs3925058 (CMPK1, WT T, VAR C), MOI D
[18] = rs4247411 (SLC28A1, WT C, VAR T), MOI D
[19] = rs4271567 (SLC28A1, WT T, VAR A), MOI R
[20] = rs4643786 (DCK, WT T, VAR C), MOI R

Structure (SMILES): Nc1ccn([C@@H]2O[C@H](CO)[C@@H](O)[C@@H]2O)c(=O)n1 [HDAC, cytarabine]
- EFS HR (95% CI) [1]: 1.53 (0.98-2.4)
- MRD1 OR (95% CI) [1]: 1.08 (0.49-2.38)
- OS HR (95% CI) [1]: 1.49 (0.91-2.46)
- EFS HR (95% CI) [2]: 0.86 (0.6-1.23)
- MRD1 OR (95% CI) [2]: 0.48 (0.28-0.81)
- OS HR (95% CI) [2]: 1.15 (0.74-1.81)
- EFS HR (95% CI) [3]: 0.88 (0.52-1.5)
- MRD1 OR (95% CI) [3]: 1.08 (0.55-2.1)
- OS HR (95% CI) [3]: 0.75 (0.39-1.46)
- EFS HR (95% CI) [4]: 1.1 (0.7-1.72)
- MRD1 OR (95% CI) [4]: 1.43 (0.76-2.67)
- OS HR (95% CI) [4]: 1.05 (0.62-1.8)
- EFS HR (95% CI) [5]: 1.71 (1.12-2.62)
- MRD1 OR (95% CI) [5]: 1.01 (0.51-2.01)
- OS HR (95% CI) [5]: 1.37 (0.8-2.36)
- EFS HR (95% CI) [6]: 0.45 (0.22-0.92)
- MRD1 OR (95% CI) [6]: 0.91 (0.49-1.66)
- OS HR (95% CI) [6]: 0.58 (0.28-1.19)
- EFS HR (95% CI) [7]: 1.25 (0.74-2.09)
- MRD1 OR (95% CI) [7]: 0.69 (0.32-1.48)
- OS HR (95% CI) [7]: 0.86 (0.44-1.69)
- EFS HR (95% CI) [8]: 0.97 (0.66-1.42)
- MRD1 OR (95% CI) [8]: 1.37 (0.82-2.29)
- OS HR (95% CI) [8]: 1.1 (0.72-1.71)
- EFS HR (95% CI) [9]: 0.66 (0.45-0.98)
- MRD1 OR (95% CI) [9]: 0.9 (0.56-1.47)
- OS HR (95% CI) [9]: 0.73 (0.47-1.14)
- EFS HR (95% CI) [10]: 0.9 (0.63-1.28)
- MRD1 OR (95% CI) [10]: 1.09 (0.67-1.78)
- OS HR (95% CI) [10]: 1.44 (0.7-2.98)
- EFS HR (95% CI) [11]: 1.14 (0.78-1.66)
- MRD1 OR (95% CI) [11]: 1.04 (0.61-1.77)
- OS HR (95% CI) [11]: 1.42 (0.93-2.17)
- EFS HR (95% CI) [12]: 1.18 (0.7-1.99)
- MRD1 OR (95% CI) [12]: 0.73 (0.34-1.56)
- OS HR (95% CI) [12]: 0.89 (0.46-1.75)
- EFS HR (95% CI) [13]: 0.94 (0.63-1.39)
- MRD1 OR (95% CI) [13]: 1.39 (0.84-2.31)
- OS HR (95% CI) [13]: 0.87 (0.54-1.4)
- EFS HR (95% CI) [14]: 1.41 (0.8-2.51)
- MRD1 OR (95% CI) [14]: 1.16 (0.48-2.81)
- OS HR (95% CI) [14]: 1.48 (0.75-2.94)
- EFS HR (95% CI) [15]: 1.65 (1.15-2.36)
- MRD1 OR (95% CI) [15]: 1.89 (1.15-3.11)
- OS HR (95% CI) [15]: 1.43 (0.94-2.18)
- EFS HR (95% CI) [16]: 0.71 (0.47-1.09)
- MRD1 OR (95% CI) [16]: 0.82 (0.49-1.37)
- OS HR (95% CI) [16]: 0.51 (0.27-0.93)
- EFS HR (95% CI) [17]: 0.81 (0.56-1.18)
- MRD1 OR (95% CI) [17]: 1.41 (0.79-2.53)
- OS HR (95% CI) [17]: 0.76 (0.49-1.18)
- EFS HR (95% CI) [18]: 1.69 (1.08-2.64)
- MRD1 OR (95% CI) [18]: 1.91 (1.08-3.37)
- OS HR (95% CI) [18]: 1.72 (1-2.95)
- EFS HR (95% CI) [19]: 0.52 (0.29-0.95)
- MRD1 OR (95% CI) [19]: 0.66 (0.35-1.23)
- OS HR (95% CI) [19]: 0.54 (0.26-1.11)
- EFS HR (95% CI) [20]: 1.15 (0.63-2.09)
- MRD1 OR (95% CI) [20]: 0.87 (0.36-2.12)
- OS HR (95% CI) [20]: 1.38 (0.75-2.56)
